Like-named read-outs stand apart in the source and are kept apart here.
Tests used:
[1] = Buffer capacity by titration to pH 6 with 0.1N hydrochloric acid; format: physicochemical
Excerpt: (§1) The example compares performance of compositions of the instant invention with sodium bicarbonate, with regard to original pH, and amount of acid buffered to pH 6. One gram of buffering agent was mixed with 100 grams water and titrated to pH 6 by 0.1N hydrochloric acid.

[2] = tested on: rumen juices of a ruminant animal; settings: steer, 50 lbs/day ration, three days on ration
Excerpt: A ruminating steer weighing about 1100 pounds which had been fistulated so that rumen fluid samples could be withdrawn as desired for pH measurement was used in experiments in which the steer was fed a constant high energy ration typical of a finishing feedlot ration. The only change in the rations were in the types and amounts of buffering agent used. The buffering agents were blended into the feed ration prior to its use. The fistulated steer received the same buffered feed ration for three days prior to sampling the rumen fluid and determining pH.

[3] = pH of buffering agent in water; format: physicochemical
Excerpt: Materials frequently used in the art to buffer digestive fluids are sodium bicarbonate and magnesium oxide. […] Over-treatment with buffer may be caused by errors in estimates of animal size, and the composition of the digestive fluid and by errors in measuring the amounts of the buffering material.
as §1

[4] = tested on: newly hatched broiler chicks; test: 21-day broiler chick feeding test of phosphorus bioavailability and weight gain; format: in vivo; settings: 21 days
Method: The tests were conducted at a University Test Facility starting with newly hatched broiler chicks. The test was carried out over a 21-day period. Weight gain was measured in each group of 10 chicks. Also measured at the end of the test were weight gain/weight of feed, weight percent ash in the tibia, and the relative bioavailability.
Measurements were made comparing the results obtained with the test material and the Standard NRC technical grade hydrous dibasic calcium phosphate.

Molecule | Buffer Capacity m.eg. of HCl brought to pH per gram compound ([1]; 1 gram in 100 grams water, titrated to pH 6 by 0.1N hydrochloric acid) | speed of changes in pH when combined with aqueous acid ([1]; during titration with 0.1N hydrochloric acid) | pH of Rumen Sample ([2]; buffer amount 0.5/1.00 lbs/%) | pH of Rumen Sample ([2]; buffer amount 0.8/1.60 lbs/%) | pH of Buffer 5% in H2O [3] | Ash Content of Tibia, Wt % ([4]; Added P in feed 0.15 Wt %) | Avg. Wt. Gain, Gms ([4]; Added P in feed 0.15 Wt %) | Wt. Gain, gms per grm feed ([4]; Added P in feed 0.15 Wt %) | Ash Content of Tibia, Wt % ([4]; Added P in feed 0.25 Wt %) | Avg. Wt. Gain, Gms ([4]; Added P in feed 0.25 Wt %) | Wt. Gain, gms per grm feed ([4]; Added P in feed 0.25 Wt %) | Ash Content of Tibia, Wt % ([4]; Added P in feed 0.35 Wt %) | Avg. Wt. Gain, Gms ([4]; Added P in feed 0.35 Wt %) | Wt. Gain, gms per grm feed ([4]; Added P in feed 0.35 Wt %)
O=C([O-])O.[Na+] [NaHCO3, sodium bicarbonate] | 10.0 m.eg. of HCl per gram compound | about instant | 6.7 | 7.4 | 9.0 | – | – | – | – | – | – | – | – | –
hydrous dibasic calcium phosphate [Standard Phosphorus Source] | – | – | – | – | – | 40.5 Wt % | 639.6 Gms | 0.688 gms per grm feed | 41.5 Wt % | 664.6 Gms | 0.725 gms per grm feed | 42.5 Wt % | 667.7 Gms | 0.722 gms per grm feed
